From US10842806B2, “Methods for treating ocular inflammatory disorders” (Massachusetts Eye and Ear Infirmary, priority 2011, dated 2020)

How the values were obtained:
[1] = tested on: endotoxin-induced uveitis (EIU); test: Clinical scoring of EIU by slit lamp examination; type: in vivo, Lewis rats; conditions: for EIU clinical inflammation score: 24 h after LPS, scale 0-4, mean±SD, PBS-treated EIU 3.6±0.7; for EIU clinical score: no suppression vs controls
Excerpt: Endotoxin-induced uveitis (EIU) is a rodent model of human uveitis, induced by a single systemic injection of endotoxin or lipopolysaccharide (LPS) (Rosenbaum et al., (1980) NATURE 286:611-613). Injected animals develop acute bilateral anterior inflammation, characterized by a breakdown of the blood-ocular barrier and accumulation of inflammatory cells. EIU has been used to investigate the pathogenesis of uveitis and to evaluate the therapeutic effect of several drugs (Herbort et al. (1989) EXP. EYE RES. 48:693-705; Avunduk et al. (2004) EXP. EYE RES. 79:357-365; Chang et al. (2006) BR. J. OPHTHALMOL. 90:103-108; Wakefield et al. (2010) BR. J. OPHTHALMOL. 94:271-274). The effect of AICAR on ocular inflammation associated with uveitis was assessed using the EIU rat model. Male Lewis rats ranging from 6-8 weeks old (Charles River, Wilmington, Mass.) were used for these studies. To study the effects of AICAR pretreatment, AICAR and PBS (for placebo treatment) were delivered via intraperitoneal injection of AICAR (50 mg/kg or 100 mg/kg body weight; Sigma) diluted in 150 μl PBS or equal volume of PBS at 6 hours before and at the same time as LPS injection. Four experimental groups of rats were compared: (1) Normal: no treatment (2) AICAR: normal rats treated with AICAR 6 hours before examination; (3) LPS: EIU rats treated with PBS; (4) LPS+AICAR: EIU rats treated with AICAR. Two additional groups of rats were used to study the effects of AICAR (50 mg/kg) given either at the same time as LPS injection or at 6 hours after LPS injection. Clinical scoring of EIU was performed as previously described (Pouvreau et al. (1998) J. NEUROIMMUNOL. 86:171-181). Slit lamp examination was conducted 24 hours after LPS injection in a masked fashion. The severity of EIU was graded from 0 to 4 by a masked investigator, using the following scale: 0=no inflammatory reaction; 1=discrete inflammation of the iris and conjunctival vessels; 2=dilation of the iris and conjunctival vessels with moderate flare in the anterior chamber; 3=hyperemia in iris associated with Tyndall effect in the anterior chamber; and 4=same clinical signs as 3 plus the presence of fibrin or synechiae.

NF-κB P65 = NF-κB P65 in retinal nuclear extracts (ELISA); type: in vivo, Lewis rats; conditions: AICAR pretreatment; 3 hours after LPS; n=9; PBS-treated EIU 27.3±11.0, control 8.3±8.6
Procedure: Male Lewis rats ranging from 6-8 weeks old (Charles River, Wilmington, Mass.) were used for these studies. To study the effects of AICAR pretreatment, AICAR and PBS (for placebo treatment) were delivered via intraperitoneal injection of AICAR (50 mg/kg or 100 mg/kg body weight; Sigma) diluted in 150 μl PBS or equal volume of PBS at 6 hours before and at the same time as LPS injection. Four experimental groups of rats were compared: (1) Normal: no treatment (2) AICAR: normal rats treated with AICAR 6 hours before examination; (3) LPS: EIU rats treated with PBS; (4) LPS+AICAR: EIU rats treated with AICAR. Two additional groups of rats were used to study the effects of AICAR (50 mg/kg) given either at the same time as LPS injection or at 6 hours after LPS injection. To investigate the LPS-induced signal transduction pathway, NF-κB P65 protein levels translocated into the nuclei of retinal cell extracts were examined 3 hours after LPS injection. For the measurement of NF-κB activity, pooled retinas from six normal rats, nine EIU PBS-treated rats, and nine EIU AICAR-treated rats were analyzed. […] The amount of NF-κB in the nuclear extracts was analyzed by measuring the p65 protein levels with a NF-κB detection kit (p65 Transcription Factor Assay kit; Active Motif, Carlsbad, Calif.). NF-κB concentration was calculated and corrected for protein concentration.

lymph node (LN) cells = test: Proliferation, cytokine production and transcription factor expression of LN cells from AICAR-treated EAU mice; type: in vivo, C57BL/6 (WT) mice
Procedure: To extract LN cells, draining lymph nodes from 6 to 8 mice were isolated at sixteen days after immunization and pooled. Single cell suspensions were made using a cell strainer (BD, Franklin Lakes, N.J.). CD4 T cell-enriched fractions were prepared using CD4 Microbeads (Miltenyi Biotec GmbH, Bergisch Gladbach, Germany), and purity of the suspensions was determined by staining with anti-CD4 antibody (GK1.5, Biolegend, San Diego, Calif.) and flow cytometry. All experimental samples of CD4 T cell-enriched fractions were at least 95% CD4-positive. To measure cell proliferation, LN cells were resuspended at 5×10^5 cells per 200 μl of medium in 96-well flat-bottom plates. Cells were incubated for 72 hours and proliferation during the last 12 hours was measured by using a bromodeoxyuridine (BrdU) cell proliferation assay kit (Millipore, Billerica, Mass.). Supernatant in the culture medium was collected at 48 hours and cytokine production in the supernatant was measured by ELISA using the Quantikine mouse IFN-γ, IL-4, IL-10 and IL-17 kits (R&D system, Minneapolis, Minn.). To measure the expression of T-bet and RORγt, real-time PCR was carried out as described above using the following TaqMan gene expression assays: T-bet (Mm00450960_m1) and RORγt (Mm01261022_m1). Quantitative expression data were acquired and analyzed with a Step One Plus real-time PCR system (Applied Biosystems). In order to assess the in vivo effect of AICAR on the development of IRBP-reactive T cells, LN cells from control and AICAR-treated mice were stimulated with either IRBP or a non-specific T cell stimulator, anti-CD3. Proliferative response was measured with BrdU incorporation. […] In comparison, when the cells were treated with anti-CD3, there was no difference in T cell proliferation between the AICAR treated and control mice (FIG. 8B).

[2] = AICAR-treated EAU mice, real-time PCR
[3] = LN cells from AICAR-treated EAU mice, ELISA

## NC(=O)c1ncn([C@@H]2O[C@H](CO)[C@@H](O)[C@H]2O)c1N [AICAR, 5-aminoimidazole-4-carboxamide-1-β-d-ribofuranoside]
[1]; AICAR 50 mg/kg i.p. 6 h before and at same time as LPS, n=15
  EIU clinical inflammation score: 2.2±0.75
[1]; AICAR 100 mg/kg i.p. 6 h before and at same time as LPS, n=12
  EIU clinical inflammation score: 2.7±1.4
[1]; AICAR-pretreated EIU animals vs PBS-treated EIU rats
  Fibrin formation and posterior synechiae: rarely seen
[1]; age-matched normal rats, no LPS, n=6
  Inflammation in normal rats that received AICAR alone: No inflammation was detected
[1]; single dose AICAR 50 mg/kg at 6 hours after LPS injection, n=6
  EIU clinical score: 3.9±0.2
[1]; single dose AICAR 50 mg/kg at the time of LPS injection, n=6
  EIU clinical score: 3.7±0.5
NF-κB P65
  NF-κB P65 protein level in retinal nuclear extracts: 18.2±3.9 ng/mg total protein
Lymph node (LN) cells; [2]
  RORγt mRNA expression in CD4 T cells: suppressed
  T-bet mRNA expression in CD4 T cells: suppressed
Lymph node (LN) cells; LN cells from AICAR treated vs control mice
  T cell proliferation (BrdU), anti-CD3 stimulation: no difference
Lymph node (LN) cells; [3]
  IFN-γ production by LN cells: significantly suppressed
  IL-10 production by LN cells: significantly suppressed
  IL-17 production by LN cells: significantly suppressed
Lymph node (LN) cells; LN cells from AICAR-treated vs untreated EAU mice, dose-dependent manner
  Antigen-specific T cell proliferation (BrdU), IRBP stimulation: suppressed
